Source: PubChem BioAssay (NCI)
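Cultured in 96-well plates, cells were exposed to test compound for 48 hours across five concentrations. The concentration for 50% growth inhibition is given as GI50. At the TGI there is no net growth.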

Experiments:
Assay in all cases: NCI tumour cell line growth inhibition, 48 h
SN12C renal = test system: SN12C renal
CCRF-CEM leukemia = test system: CCRF-CEM leukemia
LOX IMVI melanoma = test system: LOX IMVI melanoma
T-47D breast = test system: T-47D breast
NCI-H460 lung = test system: NCI-H460 lung
MCF7 breast = test system: MCF7 breast
CAKI-1 renal = test system: CAKI-1 renal
SF-539 CNS = test system: SF-539 CNS
UACC-257 melanoma = test system: UACC-257 melanoma
EKVX NSCLC = test system: EKVX NSCLC
MDA-MB-231 breast = test system: MDA-MB-231 breast
U251 CNS = test system: U251 CNS
MALME-3M melanoma = test system: MALME-3M melanoma
K-562 leukemia = test system: K-562 leukemia
OVCAR-3 ovarian = test system: OVCAR-3 ovarian
RXF 393 renal = test system: RXF 393 renal
HS 578T breast = test system: HS 578T breast
HL-60(TB) leukemia = test system: HL-60(TB) leukemia
RPMI-8226 leukemia = test system: RPMI-8226 leukemia
UO-31 renal = test system: UO-31 renal
A498 renal = test system: A498 renal
TK-10 renal = test system: TK-10 renal
HOP-92 NSCLC = test system: HOP-92 NSCLC
NCI-H226 lung = test system: NCI-H226 lung
OVCAR-4 ovarian = test system: OVCAR-4 ovarian
NCI/ADR-RES ovarian = test system: NCI/ADR-RES ovarian
PC-3 prostate = test system: PC-3 prostate
SNB-75 CNS = test system: SNB-75 CNS
786-0 renal = test system: 786-0 renal
COLO 205 colon = test system: COLO 205 colon
UACC-62 melanoma = test system: UACC-62 melanoma
SF-295 CNS = test system: SF-295 CNS
MOLT-4 leukemia = test system: MOLT-4 leukemia
SF-268 CNS = test system: SF-268 CNS
BT-549 breast = test system: BT-549 breast
IGROV1 ovarian = test system: IGROV1 ovarian
KM12 colon = test system: KM12 colon
OVCAR-5 ovarian = test system: OVCAR-5 ovarian
HCC-2998 colon = test system: HCC-2998 colon
NCI-H23 lung = test system: NCI-H23 lung
M14 melanoma = test system: M14 melanoma
SK-OV-3 ovarian = test system: SK-OV-3 ovarian
HOP-62 NSCLC = test system: HOP-62 NSCLC
ACHN renal = test system: ACHN renal
HT29 colon = test system: HT29 colon
A549 NSCLC = test system: A549 NSCLC
HCT-15 colon = test system: HCT-15 colon
SR leukemia = test system: SR leukemia
MDA-MB-435 = test system: MDA-MB-435
SNB-19 CNS = test system: SNB-19 CNS
SK-MEL-5 melanoma = test system: SK-MEL-5 melanoma
HCT-116 colon = test system: HCT-116 colon
SK-MEL-28 melanoma = test system: SK-MEL-28 melanoma
SW-620 colon = test system: SW-620 colon
NCI-H522 lung = test system: NCI-H522 lung
OVCAR-8 ovarian = test system: OVCAR-8 ovarian
SK-MEL-2 melanoma = test system: SK-MEL-2 melanoma
DU-145 prostate = test system: DU-145 prostate

For `COC(=O)/C=C/c1cn(C(C)=O)c2ccc(Br)cc12`, the GI50 (SN12C renal) was 31.6 µM, the TGI (SN12C renal) was > 100 µM and the GI50 (CCRF-CEM leukemia) was 1.44 µM. For the same molecule, the TGI (CCRF-CEM leukemia) was > 100 µM, the GI50 (LOX IMVI melanoma) was 17.9 µM and the TGI (LOX IMVI melanoma) was > 77.9 µM. For the same molecule, the GI50 (T-47D breast) was 23.4 µM, the TGI (T-47D breast) was > 100 µM and the GI50 (NCI-H460 lung) was 34.6 µM. For the same molecule, the TGI (NCI-H460 lung) was > 100 µM, the GI50 (MCF7 breast) was 15.7 µM and the TGI (MCF7 breast) was > 100 µM. It also gave a GI50 (CAKI-1 renal) of 19.1 µM, a TGI (CAKI-1 renal) of 44.2 µM and a GI50 (SF-539 CNS) of 29.9 µM. The TGI (SF-539 CNS) was > 100 µM, the GI50 (UACC-257 melanoma) was 35.6 µM and the TGI (UACC-257 melanoma) was > 100 µM. The GI50 (EKVX NSCLC) was 28.2 µM, the TGI (EKVX NSCLC) was > 100 µM and the GI50 (MDA-MB-231 breast) was 11.8 µM. The TGI (MDA-MB-231 breast) was 29.5 µM, the GI50 (U251 CNS) was 28.2 µM and the TGI (U251 CNS) was > 100 µM. The GI50 (MALME-3M melanoma) was 24.9 µM, the TGI (MALME-3M melanoma) was > 88.8 µM and the GI50 (K-562 leukemia) was 0.967 µM. For the same molecule, the TGI (K-562 leukemia) was > 23 µM, the GI50 (OVCAR-3 ovarian) was 23.9 µM and the TGI (OVCAR-3 ovarian) was > 100 µM. For the same molecule, the GI50 (RXF 393 renal) was 26.9 µM, the TGI (RXF 393 renal) was > 100 µM and the GI50 (HS 578T breast) was 22 µM. For the same molecule, the TGI (HS 578T breast) was 76.2 µM, the GI50 (HL-60(TB) leukemia) was 15.3 µM and the TGI (HL-60(TB) leukemia) was > 100 µM. The GI50 (RPMI-8226 leukemia) was 19 µM, the TGI (RPMI-8226 leukemia) was > 100 µM and the GI50 (UO-31 renal) was 8.73 µM. For the same molecule, the TGI (UO-31 renal) was 48.5 µM, the GI50 (A498 renal) was 20.9 µM and the TGI (A498 renal) was 45.7 µM. For the same molecule, the GI50 (TK-10 renal) was 24.7 µM, the TGI (TK-10 renal) was 71.4 µM and the GI50 (HOP-92 NSCLC) was 14.7 µM. For the same molecule, the TGI (HOP-92 NSCLC) was > 60.7 µM, the GI50 (NCI-H226 lung) was 20.9 µM and the TGI (NCI-H226 lung) was > 93.4 µM. For the same molecule, the GI50 (OVCAR-4 ovarian) was 31.4 µM, the TGI (OVCAR-4 ovarian) was > 100 µM and the GI50 (NCI/ADR-RES ovarian) was 29.4 µM. The TGI (NCI/ADR-RES ovarian) was > 100 µM, the GI50 (PC-3 prostate) was 28 µM and the TGI (PC-3 prostate) was > 100 µM. For the same molecule, the GI50 (SNB-75 CNS) was 16.1 µM, the TGI (SNB-75 CNS) was 55.2 µM and the GI50 (786-0 renal) was 17.4 µM. For the same molecule, the TGI (786-0 renal) was 39.2 µM, the GI50 (COLO 205 colon) was 24.8 µM and the TGI (COLO 205 colon) was > 85 µM. The GI50 (UACC-62 melanoma) was 30.7 µM, the TGI (UACC-62 melanoma) was > 100 µM and the GI50 (SF-295 CNS) was 16.1 µM. For the same molecule, the TGI (SF-295 CNS) was 40.1 µM, the GI50 (MOLT-4 leukemia) was 27.4 µM and the TGI (MOLT-4 leukemia) was > 100 µM. The GI50 (SF-268 CNS) was 26.4 µM, the TGI (SF-268 CNS) was > 100 µM and the GI50 (BT-549 breast) was 17.2 µM. For the same molecule, the TGI (BT-549 breast) was 83.6 µM, the GI50 (IGROV1 ovarian) was 19.1 µM and the TGI (IGROV1 ovarian) was > 100 µM. It also gave a GI50 (KM12 colon) of 25.3 µM, a TGI (KM12 colon) of 79.5 µM and a GI50 (OVCAR-5 ovarian) of 31 µM. For the same molecule, the TGI (OVCAR-5 ovarian) was > 83.3 µM, the GI50 (HCC-2998 colon) was 21.8 µM and the TGI (HCC-2998 colon) was 64.8 µM. For the same molecule, the GI50 (NCI-H23 lung) was 27.9 µM, the TGI (NCI-H23 lung) was > 100 µM and the GI50 (M14 melanoma) was 28.5 µM. The TGI (M14 melanoma) was > 100 µM, the GI50 (SK-OV-3 ovarian) was 32.4 µM and the TGI (SK-OV-3 ovarian) was > 100 µM. For the same molecule, the GI50 (HOP-62 NSCLC) was 25 µM, the TGI (HOP-62 NSCLC) was > 73.5 µM and the GI50 (ACHN renal) was 29.4 µM. The TGI (ACHN renal) was > 100 µM, the GI50 (HT29 colon) was 27.5 µM and the TGI (HT29 colon) was > 100 µM. The GI50 (A549 NSCLC) was 33.8 µM, the TGI (A549 NSCLC) was > 100 µM and the GI50 (HCT-15 colon) was 23.4 µM. For the same molecule, the TGI (HCT-15 colon) was > 100 µM, the GI50 (SR leukemia) was 32.5 µM and the TGI (SR leukemia) was > 100 µM. For the same molecule, the GI50 (MDA-MB-435) was 29 µM, the TGI (MDA-MB-435) was > 100 µM and the GI50 (SNB-19 CNS) was 37.2 µM. The TGI (SNB-19 CNS) was > 100 µM, the GI50 (SK-MEL-5 melanoma) was 33.5 µM and the TGI (SK-MEL-5 melanoma) was > 100 µM. For the same molecule, the GI50 (HCT-116 colon) was 32.6 µM, the TGI (HCT-116 colon) was > 100 µM and the GI50 (SK-MEL-28 melanoma) was 49 µM. For the same molecule, the TGI (SK-MEL-28 melanoma) was > 100 µM, the GI50 (SW-620 colon) was 35.6 µM and the TGI (SW-620 colon) was > 100 µM. It also gave a GI50 (NCI-H522 lung) of 21 µM, a TGI (NCI-H522 lung) of 97.5 µM and a GI50 (OVCAR-8 ovarian) of 38.5 µM. The TGI (OVCAR-8 ovarian) was > 100 µM, the GI50 (SK-MEL-2 melanoma) was 29.5 µM and the TGI (SK-MEL-2 melanoma) was > 100 µM. The GI50 (DU-145 prostate) was 32.5 µM and the TGI (DU-145 prostate) was > 100 µM.
